Assays:
[1] = biological target: T1, β5i subunit of the 20S proteasome (Homo sapiens, UniProt P20618+P28062); test: Proteasome inhibitory activity, β5i subunit (Raji cells treated with compound, lysed, Ac-ANW-AMC substrate); assay type: cell-based; details: proteasome from Raji cells incubated with compound 4 h
T1 construct: The proteasome tested in the present disclosure was derived from Raji cells; endogenous in cells; host or cells: Raji cells
Outline: (§1)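 Raji cells were treated for 4 h at 37 °C with compound (from 1 μM, 3-fold, 8 concentrations), then lysed. Lysate activity was read 10 min at 37 °C with Ac-ANW-AMC (β5i) or Suc-LLVY-AMC (β5c) at 345/445 nm. Percent inhibition was relative to DMSO-treated lysate.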

[2] = Blood concentration measurement of orally-administrated mice; assay type: in vivo, C57BL/6JNifdc mice; details: C57BL/6JNifdc, mouse, plasma, oral, 30 mg/kg; for concentration at 0.5 h: read-out: Average blood compound concentration (μM) 0.5 h; for concentration at 1 h: read-out: Average blood compound concentration (μM) 1.0 h; for concentration at 1.5 h: read-out: Average blood compound concentration (μM) 1.5 h; for concentration at 2 h: read-out: Average blood compound concentration (μM) 2.0 h
Procedure: The C57BL/6JNifdc mice used in this experiment were provided by Zhejiang Vital River Laboratory Animal Technology Co., Ltd. The compounds were dissolved in DMSO/Solutol/Saline (v/v/v=10/10/80) as a stock solution (3 mg/mL). The stock solution was administrated orally to 6 C57BL/6JNifdc mice at a dose of 30 mg/kg. Blood was collected from the orbital venous plexus at 0.5 h, 1 h, 1.5 h, and 2 h after oral administration.
Approximately 200 μL of blood samples were collected into EDTAK2 Blood Collection tubes and then immediately centrifuged at 10,000 rpm for 5 min. 66 μL of plasma supernatant was added with 198 μL of acetonitrile (Energy), the resulting mixture was shaken on a vortex for 5 min, and then immediately centrifuged at 13000 rpm for 8 min. 200 μL of supernatant was taken for blood compound concentration measurement.
The compound was accurately weighed and dissolved in acetonitrile to a concentration of 100 μg/mL. 50 μL of compound was pipetted and added to 4.95 mL of acetonitrile/water (v/v=3/1) solution to obtain 1000 ng/mL mother liquid. 650 μL of the mother liquid was taken and sequentially diluted with a solution of acetonitrile/water (v/v=3/1) in a 2-fold gradient to obtain standard samples with various concentrations of 500 ng/mL, 250 ng/mL, 125 ng/mL, 62.5 ng/mL, and 31.25 ng/mL.
Standard solutions with concentrations of 1000 ng/mL, 500 ng/mL, 250 ng/mL, 125 ng/mL, 62.5 ng/mL, and 31.25 ng/mL were measured by using LC-MS (LC-MS 2020+LC-2030 Plus, Shimadzu) SIM mode to obtain a calibration curve. The treated blood samples were measured by this method and then subjected to quantitative analysis by using the calibration curve to obtain compound concentration data of each treated blood sample.
The data were exported and the average blood compound concentration at each sampling time was calculated.
Blood compound concentration=compound concentration in treated blood sample×4/molecular weight of the compound. The average blood compound concentration is the average of the compound concentrations in the blood at each sampling time.

[3] = biological target: T2, β5c subunit of the 20S proteasome (Homo sapiens, UniProt P20618+P28074); test: Proteasome inhibitory activity, β5c subunit (Raji cells treated with compound, lysed, Suc-LLVY-AMC substrate); assay type: cell-based; details: proteasome from Raji cells incubated with compound 4 h
T2 construct: The proteasome tested in the present disclosure was derived from Raji cells; endogenous in cells; host or cells: Raji cells
Outline: as §1

IC50 [1] [nM]	concentration at 0.5 h [2] [µM]	concentration at 1 h [2] [µM]	concentration at 1.5 h [2] [µM]	concentration at 2 h [2] [µM]	IC50 [3] [nM]	Compound
≤ 50	23	20	22	16	≤ 50	Cc1ccc(C[C@H](NC(=O)C(C)C(=O)NCc2ccc(Cl)cc2Cl)B(O)O)cc1 (stereo partly drawn) [Example 59, ((1R)-1-(3-((2,4-dichlorobenzyl)amino)-2-methyl-3-oxopropionamido)-2-(p-tolyl)ethyl)boric acid]
≤ 50	23	24	15	16	≤ 50	COc1cccc(CCNC(=O)C(C)C(=O)N[C@@H](Cc2coc3ccccc23)B(O)O)c1 (stereo partly drawn) [Example 63, ((1R)-2-(benzofuran-3-yl)-1-(3-((3-methoxyphenylethyl)amino)-2-methyl-3-oxopropionamido)ethyl)boric acid]
